The record followed here is ChEMBL document CHEMBL5052837, “Ghrelin o-acyltransferase inhibitors” (2019).

SMILES strings stand for the structures. Calls of active or inactive are those of the source. The rule behind the calls is not given here.

Test [1] deals with Mus musculus. Description: In vivo inhibition of GOAT in fasting mouse assessed as reduction in acyl ghrelin level at 1 to 10 mg/kg, po administered twice a day for 2 days. The conditions noted are these: dose 1-10 mg/kg, time 2.0 day. The class given is functional, organism-based.
For test [2], the system named is Mus musculus. Description: In vivo inhibition of GOAT in high fat, high carb (HFHC) diet-induced obesity model of C57BL/6 mouse assessed as increase in des-acyl ghrelin level at 10 mg/kg. It is filed as functional, organism-based.
Test [3] has as its system Rattus norvegicus. In words: In vivo inhibition of GOAT in fasting rat assessed as increase in des-acyl ghrelin level at 10 mg/kg. The class given is functional, organism-based.
In test [4] the test system is Rattus norvegicus. Description: In vivo inhibition of GOAT in fasting rat assessed as reduction in acyl ghrelin level at 10 mg/kg. It is filed as functional, organism-based.
The nature of test [5]: In vivo inhibition of GOAT in high fat, high carb (HFHC) diet-induced obesity model of C57BL/6 mouse assessed as reduction in acyl ghrelin level at 3 mg/kg. It is filed as functional. The arrangement: scale not given: the % may be the effect or the level left.
For test [6], the system named is Mus musculus. Description: In vivo inhibition of GOAT in high fat, high carb (HFHC) diet-induced obesity model of C57BL/6 mouse assessed as increase in des-acyl ghrelin level at 3 mg/kg. The class given is functional, organism-based.

Turning to `O=C(O)Cc1csc2cc(O[C@H]3CCc4ncccc43)cc(Cl)c12`, the result in the test on Mus musculus [1], with Mus musculus [2], with Rattus norvegicus [3] and in the test with Rattus norvegicus [4] was Active.
Turning to `Cc1c(C(=O)NN2CCCCC2)nn(-c2ccc(Cl)cc2Cl)c1-c1ccc(Cl)cc1` [RIMONABANT], the Activity in test [5] is reported as 61%. Besides, the result in the test with Mus musculus [6] was Active.
